# In patent US5925632A, “Derivatives of 3-pyrrolidylidene-2-one-cephalsporines” (Hoffmann-La Roche Inc., priority 1995, dated 1999):
# Where a name gives a salt, the structure may show the parent alone.
# Key:
# Test in all cases: MIC, agar dilution method in Mueller Hinton agar
# Assay type in all cases: cell-based
# S. agalactiae QK44 = conditions: Streptococcus agalactiae, read-out: MIC (Minimum Inhibiting Concentration)
# Description: (§1) In vitro activity was determined by minimum inhibitory concentration in a microorganism spectum by the agar dilution method in Mueller Hinton agar.
# K. pneumoniae 418 = conditions: Klebsiella pneumoniae, read-out: MIC (Minimum Inhibiting Concentration)
# Description: as §1
# E. cloacae 908SSi = conditions: Enterobacter cloacae, read-out: MIC (Minimum Inhibiting Concentration)
# Description: as §1
# [1] = tested on: Actinetobacter sp. 51-156; conditions: read-out: MIC (Minimum Inhibiting Concentration)
# Description: as §1
# P. mirabilis 2117 = conditions: Proteus mirabilis, read-out: MIC (Minimum Inhibiting Concentration)
# Description: as §1
# C. freundii 902 = conditions: Citrobacter freundii, read-out: MIC (Minimum Inhibiting Concentration)
# Description: as §1
# M. morganii 6H-137 = conditions: Morganella morganii, 6H137, read-out: MIC (Minimum Inhibiting Concentration)
# Description: as §1
# S. aureus 734 MRSA = conditions: Staphylococcus aureus, read-out: MIC (Minimum Inhibiting Concentration)
# Description: as §1
# S. marcescens 69438 = conditions: Serratia marcescens, read-out: MIC (Minimum Inhibiting Concentration)
# Description: as §1
# E. coli 25922 = conditions: Escherichia coli, read-out: MIC (Minimum Inhibiting Concentration)
# Description: as §1
# S. aureus 6538 = conditions: Staphylococcus aureus, read-out: MIC (Minimum Inhibiting Concentration)
# Description: as §1
# L. monocytogenes BK23 = conditions: Listeria monocytogenes, read-out: MIC (Minimum Inhibiting Concentration)
# Description: as §1
# S. viridans group 016 = conditions: Streptococcus viridans, GROUP016, read-out: MIC (Minimum Inhibiting Concentration)
# Description: as §1
# C. freundii 43 = conditions: Citrobacter freundii, read-out: MIC (Minimum Inhibiting Concentration)
# Description: as §1
# X. maltophilia 1AC739 = conditions: Stenotrophomonas maltophilia, read-out: MIC (Minimum Inhibiting Concentration)
# Description: as §1
# E. cloacae 908R = conditions: Enterobacter cloacae, read-out: MIC (Minimum Inhibiting Concentration)
# Description: as §1
# S. pyogenes B15 = conditions: Streptococcus pyogenes, read-out: MIC (Minimum Inhibiting Concentration)
# Description: as §1
# S. pneumoniae Q19 = conditions: Streptococcus pneumoniae, read-out: MIC (Minimum Inhibiting Concentration)
# Description: as §1
# E. faecalis 6 = conditions: Enterococcus faecalis, read-out: MIC (Minimum Inhibiting Concentration)
# Description: as §1
# M. catarrhalis RA21 = conditions: Moraxella catarrhalis, read-out: MIC (Minimum Inhibiting Concentration)
# Description: as §1
# P. vulgaris 1028 = conditions: Proteus vulgaris, read-out: MIC (Minimum Inhibiting Concentration)
# Description: as §1
# N. meningitidis 69480 = conditions: Neisseria meningitidis, read-out: MIC (Minimum Inhibiting Concentration)
# Description: as §1
# H. influenzae 1 = conditions: Haemophilus influenzae, read-out: MIC (Minimum Inhibiting Concentration)
# Description: as §1
# P. aeruginosa 27853 = conditions: Pseudomonas aeruginosa, read-out: MIC (Minimum Inhibiting Concentration)
# Description: as §1
smiles,measurement,setting,value
"CC(C)CN1CC/C(=C\C2=C(C(=O)O)N3C(=O)[C@@H](NC(=O)/C(=N\O)c4csc(N)n4)[C@H]3SC2)C1=O.O=C(O)C(F)(F)F [A, (6R,7R)-7-[(Z)-2-(2-amino-thiazol-4-yl)-2-hydroxyiminoacetylamino]-3-[(E)-1-isobutyl-2-oxo-pyrrolidin-3-ylidenemethyl]-8-oxo-5-thia-1-azabicyclo[4.2.0]oct-2-ene-2-carboxylic acid trifluoroacetate]",MIC,S. agalactiae QK44,0.25 µg/mL
same,MIC,K. pneumoniae 418,0.5 µg/mL
same,MIC,E. cloacae 908SSi,0.5 µg/mL
same,MIC,[1],16 µg/mL
same,MIC,P. mirabilis 2117,0.25 µg/mL
same,MIC,C. freundii 902,0.25 µg/mL
same,MIC,M. morganii 6H-137,0.25 µg/mL
same,MIC,S. aureus 734 MRSA,4 µg/mL
same,MIC,S. marcescens 69438,1 µg/mL
same,MIC,E. coli 25922,0.25 µg/mL
same,MIC,S. aureus 6538,1 µg/mL
same,MIC,L. monocytogenes BK23,4 µg/mL
same,MIC,S. viridans group 016,≤ 0.06 µg/mL
same,MIC,C. freundii 43,4 µg/mL
same,MIC,X. maltophilia 1AC739,> 32 µg/mL
same,MIC,E. cloacae 908R,16 µg/mL
same,MIC,S. pyogenes B15,≤ 0.06 µg/mL
same,MIC,S. pneumoniae Q19,≤ 0.06 µg/mL
same,MIC,E. faecalis 6,1 µg/mL
same,MIC,M. catarrhalis RA21,1 µg/mL
"CC(C)(C)CN1CC/C(=C\C2=C(C(=O)O)N3C(=O)[C@@H](NC(=O)/C(=N\O)c4csc(N)n4)[C@H]3SC2)C1=O [B, (6R,7R)-7-[(Z)-2-(2-amino-thiazol-4-yl)-2-(hydroxyiminoacetylamino]-3-[(E)-1-(2,2-dimethyl-propyl)-2-oxo-pyrrolidin-3-ylidenemethyl]-8-oxo-5-thia-1-azabicyclo[4.2.0]oct-2-ene-2-carboxylic acid trifluoroacetate]",MIC,S. agalactiae QK44,0.5 µg/mL
same,MIC,P. vulgaris 1028,4 µg/mL
same,MIC,K. pneumoniae 418,1 µg/mL
same,MIC,E. cloacae 908SSi,2 µg/mL
same,MIC,[1],32 µg/mL
same,MIC,P. mirabilis 2117,0.25 µg/mL
same,MIC,C. freundii 902,1 µg/mL
same,MIC,M. morganii 6H-137,0.5 µg/mL
same,MIC,S. aureus 734 MRSA,16 µg/mL
same,MIC,S. marcescens 69438,4 µg/mL
same,MIC,E. coli 25922,1 µg/mL
same,MIC,S. aureus 6538,1 µg/mL
same,MIC,L. monocytogenes BK23,4 µg/mL
same,MIC,S. viridans group 016,1 µg/mL
same,MIC,C. freundii 43,8 µg/mL
same,MIC,X. maltophilia 1AC739,> 32 µg/mL
same,MIC,E. cloacae 908R,32 µg/mL
same,MIC,S. pyogenes B15,≤ 0.06 µg/mL
same,MIC,S. pneumoniae Q19,≤ 0.06 µg/mL
same,MIC,E. faecalis 6,2 µg/mL
same,MIC,M. catarrhalis RA21,16 µg/mL
"Nc1nc(/C(=N/O)C(=O)N[C@@H]2C(=O)N3C(C(=O)O)=C(/C=C4\CCN(CC5CCCCC5)C4=O)CS[C@H]23)cs1 [C, (6R,7R)-7-[(Z)-2-(2-amino-thiazol-4-yl)-2-(hydroxyiminoacetylamino]-3-[(E)-1-cyclohexylmethyl-2-oxo-pyrrolidin-3-ylidenemethyl]-8-oxo-5-thia-1-azabicyclo[4.2.0]oct-2-ene-2-carboxylic acid trifluoroacetate]",MIC,S. agalactiae QK44,0.25 µg/mL
same,MIC,P. vulgaris 1028,0.5 µg/mL
same,MIC,K. pneumoniae 418,1 µg/mL
same,MIC,E. cloacae 908SSi,2 µg/mL
same,MIC,[1],16 µg/mL
same,MIC,P. mirabilis 2117,0.5 µg/mL
same,MIC,C. freundii 902,1 µg/mL
same,MIC,M. morganii 6H-137,4 µg/mL
same,MIC,S. aureus 734 MRSA,8 µg/mL
same,MIC,S. marcescens 69438,4 µg/mL
same,MIC,E. coli 25922,1 µg/mL
same,MIC,S. aureus 6538,1 µg/mL
same,MIC,L. monocytogenes BK23,4 µg/mL
same,MIC,S. viridans group 016,0.5 µg/mL
same,MIC,C. freundii 43,8 µg/mL
same,MIC,X. maltophilia 1AC739,> 32 µg/mL
same,MIC,E. cloacae 908R,16 µg/mL
same,MIC,S. pyogenes B15,≤ 0.06 µg/mL
same,MIC,S. pneumoniae Q19,≤ 0.06 µg/mL
same,MIC,E. faecalis 6,2 µg/mL
same,MIC,M. catarrhalis RA21,16 µg/mL
"C=CC1=C(C(=O)O)N2C(=O)[C@@H](NC(=O)/C(=N\O)c3csc(N)n3)[C@H]2SC1 [Cefdinir, reference compound]",MIC,S. agalactiae QK44,0.25 µg/mL
same,MIC,P. vulgaris 1028,1 µg/mL
same,MIC,K. pneumoniae 418,0.12 µg/mL
same,MIC,E. cloacae 908SSi,32 µg/mL
same,MIC,[1],> 32 µg/mL
same,MIC,P. mirabilis 2117,0.12 µg/mL
same,MIC,C. freundii 902,16 µg/mL
same,MIC,M. morganii 6H-137,8 µg/mL
same,MIC,S. aureus 734 MRSA,> 32 µg/mL
same,MIC,S. marcescens 69438,16 µg/mL
same,MIC,N. meningitidis 69480,≤ 0.06 µg/mL
same,MIC,H. influenzae 1,0.5 µg/mL
same,MIC,E. coli 25922,0.25 µg/mL
same,MIC,S. aureus 6538,0.5 µg/mL
same,MIC,L. monocytogenes BK23,16 µg/mL
same,MIC,S. viridans group 016,2 µg/mL
same,MIC,C. freundii 43,> 32 µg/mL
same,MIC,X. maltophilia 1AC739,> 32 µg/mL
same,MIC,E. cloacae 908R,> 32 µg/mL
same,MIC,S. pyogenes B15,≤ 0.06 µg/mL
same,MIC,S. pneumoniae Q19,0.25 µg/mL
same,MIC,E. faecalis 6,8 µg/mL
same,MIC,M. catarrhalis RA21,1 µg/mL
same,MIC,P. aeruginosa 27853,> 32 µg/mL
"CO/N=C(\C(=O)N[C@@H]1C(=O)N2C(C(=O)O)=C(CSc3nc(=O)c(=O)[nH]n3C)CS[C@H]12)c1csc(N)n1 [Ceftriaxone, [6R-[6a,7b(Z)]]-7-([[2-Amino-4-thiazolyl)(methoxyimino)acetyl]amino]-8-oxo-3-[[(1,2,5,6-tetrahydro-2-methyl-5,6dioxo-1,2,4-triazin-3-yl)thio]methyl]-5-thia-1-azabicyclo[4.2.0]oct-2-ene-2-carboxylic acid, reference compound]",MIC,S. agalactiae QK44,≤ 0.06 µg/mL
same,MIC,P. vulgaris 1028,0.12 µg/mL
same,MIC,K. pneumoniae 418,≤ 0.06 µg/mL
same,MIC,E. cloacae 908SSi,0.25 µg/mL
same,MIC,[1],32 µg/mL
same,MIC,P. mirabilis 2117,≤ 0.06 µg/mL
same,MIC,C. freundii 902,0.25 µg/mL
same,MIC,M. morganii 6H-137,≤ 0.06 µg/mL
same,MIC,S. aureus 734 MRSA,> 32 µg/mL
same,MIC,S. marcescens 69438,0.25 µg/mL
same,MIC,N. meningitidis 69480,≤ 0.01 µg/mL
same,MIC,H. influenzae 1,≤ 0.06 µg/mL
same,MIC,E. coli 25922,≤ 0.06 µg/mL
same,MIC,S. aureus 6538,4 µg/mL
same,MIC,L. monocytogenes BK23,> 16 µg/mL
same,MIC,S. viridans group 016,0.25 µg/mL
same,MIC,C. freundii 43,32 µg/mL
same,MIC,X. maltophilia 1AC739,> 32 µg/mL
same,MIC,E. cloacae 908R,> 32 µg/mL
same,MIC,S. pyogenes B15,≤ 0.06 µg/mL
same,MIC,S. pneumoniae Q19,≤ 0.06 µg/mL
same,MIC,E. faecalis 6,> 32 µg/mL
same,MIC,M. catarrhalis RA21,1 µg/mL
same,MIC,P. aeruginosa 27853,16 µg/mL
